The text below walks through data of patent publication US20180289008A1, “METHODS FOR WILDFIRE CONTROL, INVASIVE PLANT CONTROL, AND RESIDUAL CONTROL OF INVASIVE PLANTS” (priority 2017, published 2018).

For data set [1] the following is noted: pH 7; cited from earlier work.
Data set [2] deals with downy brome (Bromus tectorum). Briefly: Herbicide efficacy field trial, visual percent control of downy brome. It counts as in vivo. To be noted: 4 YAT. The method, then: The present inventors conducted a field trial to evaluate the effectiveness of herbicides for long-term downy brome and Dalmatian toadflax control. The experiment was conducted at one site. The results provide the framework for the subsequent greenhouse experiment. (See below). The field experiment was located in Longmont, Colo. (lat 40° 14′57.53″N, long 105° 12′35.46″W) on Rabbit Mountain Open Space, the easternmost point of the foothills in Boulder County. The canopy cover of actively growing downy brome and Dalmatian toadflax at peak standing crop was approximately 85% and 30%, respectively. […]
For the herbicide efficacy field experiment, repeated measures analysis of variance (ANOVA) was used to determine the effects of herbicide treatments on long-term Dalmatian toadflax and downy brome control. Percent control data were first analyzed in SAS 9.3 using Proc MIXED, with year after treatment defined as the repeated measure (SAS Institute 2010). […] Dalmatian toadflax and downy brome control response variables were analyzed separately, and main effects and interactions were tested at the α=0.05 significance level. […] To determine herbicide impacts on residual Dalmatian toadflax and downy brome control, the significant treatment-by-year interaction was evaluated using the Proc GLIMMIX method and the LINES statement. […]

Data set [3] concerns invasive winter annual grass (downy brome, feral rye, Japanese brome). In words: Invasive winter annual grass field efficacy studies, biomass as percent of non-treated (Sites 1 and 2 combined). Format: in vivo, Bromus tectorum, Secale cereale, Bromus japonicus. The note with it: 1 YAT, EPRE timing, imazapic 123 g·ai·ha^−1. The method, then: In year 1, field experiments were conducted to compare the effectiveness of indaziflam and imazapic for long-term invasive winter annual grass control, and to evaluate the response of the native plant communities. The experiments were established at two sites on the Colorado Front Range dominated by invasive winter annual grasses. Site 1 (lat 40° 15′2″N, long 105° 12′56″W) was infested with equal amounts of downy brome and Japanese brome. Site 2 (lat 40° 43′23″N, long 104° 55′58″W) was infested with feral rye. These two sites were approximately 58 km apart. Site 1 was located on Rabbit Mountain Open Space (Boulder County). Site 2 was located on a Colorado Parks and Wildlife Area (Larimer County). Before herbicide application in July, visual estimates were made across the entire study area of percentage of living canopy cover for all species present at both sites.
Site 1 was characterized by ˜80-100% downy brome and Japanese brome canopy cover with a dense fine-fuel layer, e.g., thatch, (2 to 5 cm), and a scattered stand of co-occurring species (˜0-10% canopy cover, Table 4). […]
Biomass harvests and species richness evaluations were conducted in August (year 2 and year 3) to evaluate invasive winter annual grass control and response of co-occurring species. […] Additionally, at Site 1, species richness was calculated for each treatment as a simple estimate of biological diversity. […]

In the case of `Cc1cnc(C2=NC(=O)C(C)(C(C)C)N2)c(C(=O)O)c1` (stereo not drawn) [Imazapic, imazapic], the “Log Kow” value in data set [1] was 0.01. In data set [2], the “residual downy brome control” value is given as “less than 25%”. Also, the “invasive winter annual grass control” value in data set [3] is on record as ~41%.
